Reference: ChEMBL document CHEMBL3822377, “Locking PDK1 in DFG-out conformation through 2-oxo-indole containing molecules: Another tools to fight glioblastoma” (Eur J Med Chem, 2016)
The source made the active and inactive calls. The calls are words filed in the database; no cut-off is given here.

What was measured:
[1] = (§1) Antiproliferative activity against human GSC cells after 7 days by MTS assay; type: functional, cell-based; conditions: 168 h
GSC [2] = experiment: as §1; type: functional, cell-based
[3] = target: Mitogen-activated protein kinase 3 (Homo sapiens) (UniProt P27361); experiment: Inhibition of GST-tagged full-length recombinant human MAPK3 expressed in baculovirus system at 100 nM by Z-lyte assay
[4] = target: Serine/threonine-protein kinase MARK1 (Homo sapiens) (UniProt Q9P0L2); experiment: Inhibition of GST-tagged full-length recombinant human MARK1 expressed in baculovirus system at 100 nM by Z-lyte assay
[5] = target: Phosphatidylinositol 4-kinase beta (Homo sapiens) (UniProt Q9UBF8); experiment: Inhibition of GST-tagged full-length human PI4K beta expressed in baculovirus system at 100 nM by adapta assay
[6] = target: Serine/threonine-protein kinase Chk2 (Homo sapiens) (UniProt O96017); experiment: Inhibition of His-tagged full-length human CHEK2 expressed in baculovirus system at 100 nM by Z-lyte assay
[7] = target: Calcium/calmodulin-dependent protein kinase type II subunit alpha (Homo sapiens) (UniProt Q9UQM7); experiment: Inhibition of His-tagged full-length human CaMKII alpha expressed in baculovirus system at 100 nM by Z-lyte assay
[8] = target: Tyrosine-protein kinase BTK (Homo sapiens) (UniProt Q06187); experiment: Inhibition of His-tagged full-length human BTK expressed in baculovirus system at 100 nM by Z-lyte assay
[9] = target: Glycogen synthase kinase-3 beta (Homo sapiens) (UniProt P49841); experiment: Inhibition of His-tagged full-length recombinant human GSK3 beta expressed in baculovirus system at 100 nM by Z-lyte assay
[10] = target: Tyrosine-protein kinase ITK/TSK (Homo sapiens) (UniProt Q08881); experiment: Inhibition of cytosolic GST-tagged full-length recombinant human ITK expressed in baculovirus system at 100 nM by Z-lyte assay
[11] = Induction of apoptosis in human GSC cells assessed as early apoptotic cells by measuring phosphatidylserine externalisation at 10 uM after 7 days by AnnexinV/FITC staining-based flow cytometry (reference value: 6.69%); type: functional
U-87 MG [12] = experiment: Induction of apoptosis in human U87MG cells assessed as early apoptotic cells by measuring phosphatidylserine externalisation at 10 uM after 72 hrs by AnnexinV/FITC staining-based flow cytometry (reference value: 6.39%); type: functional, U-87MG ATCC
[13] = system: RAF proto-oncogene serine/threonine-protein kinase (Homo sapiens), P04049 [Y340D,Y341D]; experiment: Inhibition of catalytic GST-tagged human RAF1 Y340D/Y341D double mutant expressed in baculovirus system at 100 nM by Z-lyte assay
[14] = target: Cyclin-dependent kinase 5/CDK5 activator 1 (Homo sapiens) (UniProt Q00535+Q15078); experiment: Inhibition of His-tagged full-length human CDK5/p35 expressed in baculovirus system at 100 nM by Z-lyte assay
[15] = target: T1, 3-phosphoinositide-dependent protein kinase 1 (Homo sapiens) (UniProt O15530); experiment: Inhibition of PDK1 (unknown origin) at 10 uM by FRET-based Z-lyte assay
T1 sequence (whole entry): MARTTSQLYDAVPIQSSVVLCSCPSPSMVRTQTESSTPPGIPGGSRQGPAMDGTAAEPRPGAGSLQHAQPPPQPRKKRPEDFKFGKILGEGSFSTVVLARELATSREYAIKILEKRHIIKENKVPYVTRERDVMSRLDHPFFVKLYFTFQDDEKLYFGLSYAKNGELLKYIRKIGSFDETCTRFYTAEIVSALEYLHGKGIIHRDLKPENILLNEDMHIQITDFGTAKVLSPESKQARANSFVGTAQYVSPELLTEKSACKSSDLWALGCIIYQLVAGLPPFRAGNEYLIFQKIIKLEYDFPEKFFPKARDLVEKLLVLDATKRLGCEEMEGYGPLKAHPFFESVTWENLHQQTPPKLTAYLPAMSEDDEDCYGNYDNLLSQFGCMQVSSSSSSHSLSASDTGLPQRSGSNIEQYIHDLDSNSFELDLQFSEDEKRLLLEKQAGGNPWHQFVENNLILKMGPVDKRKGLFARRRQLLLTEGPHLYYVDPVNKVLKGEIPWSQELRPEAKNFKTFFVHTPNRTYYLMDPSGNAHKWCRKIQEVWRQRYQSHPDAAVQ

[16] = (§2) Antiproliferative activity against human U87MG cells after 72 hrs by MTS assay; type: functional, cell-based, U-87MG ATCC; conditions: U-87 MG
U-87MG ATCC = experiment: as §2; type: functional, cell-based
[17] = target: Phosphatidylinositol 4,5-bisphosphate 3-kinase catalytic subunit gamma isoform (Homo sapiens) (UniProt P48736); experiment: Inhibition of His-tagged full-length human PIK3CG expressed in baculovirus system at 100 nM by adapta assay
[18] = target: Protein kinase C epsilon type (Homo sapiens) (UniProt Q02156); experiment: Inhibition of full-length recombinant human PRKCE expressed in baculovirus system at 100 nM by Z-lyte assay
[19] = target: Aurora kinase A (Homo sapiens) (UniProt O14965); experiment: Inhibition of His-tagged full-length recombinant human Aurora A expressed in baculovirus system at 100 nM by Z-lyte assay
U-87 MG [20] = experiment: Induction of apoptosis in human U87MG cells assessed as late apoptotic cells by measuring phosphatidylserine externalisation at 10 uM after 72 hrs in presence of 7-amino-actinomysin by AnnexinV/FITC staining-based flow cytometry (reference value: 4.46%); type: functional, U-87MG ATCC
[21] = target: Protein kinase C zeta type (Homo sapiens) (UniProt Q05513); experiment: Inhibition of full-length recombinant human PRKCZ expressed in baculovirus system at 100 nM by Z-lyte assay
[22] = target: PI3-kinase p110-delta/p85-alpha (Homo sapiens) (UniProt P27986+O00329); experiment: Inhibition of His-tagged full-length human PIK3CD/PIK3R1 expressed in baculovirus system at 100 nM by adapta assay
[23] = target: Casein kinase I isoform gamma-1 (Homo sapiens) (UniProt Q9HCP0); experiment: Inhibition of GST-tagged full-length human CSNK1G1 expressed in baculovirus system at 100 nM by Z-lyte assay
[24] = target: Mitogen-activated protein kinase 14 (Homo sapiens) (UniProt Q16539); experiment: Inhibition of GST-tagged full-length human MAPK14 (direct) expressed in Escherichia coli at 100 nM by Z-lyte assay
[25] = target: AMP-activated protein kinase, AMPK (Homo sapiens) (UniProt P54646+O43741+P54619+Q9UGJ0+Q9Y478+Q13131+Q9UGI9); experiment: Inhibition of GST/His-tagged full-length human recombinant AMPK A1/B1/G1 expressed in baculovirus system at 100 nM by Z-lyte assay
[26] = target: Proto-oncogene tyrosine-protein kinase Src (Homo sapiens) (UniProt P12931); experiment: Inhibition of His-tagged full-length recombinant human SRC expressed in baculovirus system at 100 nM by Z-lyte assay
GSC [27] = experiment: Antiproliferative activity against human GSC cells at 0.001 to 1 uM after 4 days by MTS assay; type: functional, cell-based
[28] = Antiproliferative activity against human U87MG cells at 0.001 to 100 uM after 24 hrs by MTS assay; type: functional, U-87MG ATCC

Casein kinase I isoform gamma-1 (Homo sapiens), sequence (Q9HCP0 whole entry, looked up, canonical isoform): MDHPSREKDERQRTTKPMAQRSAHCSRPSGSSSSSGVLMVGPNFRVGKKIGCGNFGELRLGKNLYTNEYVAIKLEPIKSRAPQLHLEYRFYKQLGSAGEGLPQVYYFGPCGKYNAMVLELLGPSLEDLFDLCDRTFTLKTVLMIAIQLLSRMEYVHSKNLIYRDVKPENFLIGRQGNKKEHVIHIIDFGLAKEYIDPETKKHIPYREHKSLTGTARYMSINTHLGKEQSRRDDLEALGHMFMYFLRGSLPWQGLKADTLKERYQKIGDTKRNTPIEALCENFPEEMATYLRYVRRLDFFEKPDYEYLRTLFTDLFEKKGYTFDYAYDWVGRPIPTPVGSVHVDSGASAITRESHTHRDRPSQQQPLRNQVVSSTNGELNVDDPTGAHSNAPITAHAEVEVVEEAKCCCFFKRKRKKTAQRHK
Tyrosine-protein kinase ITK/TSK (Homo sapiens), sequence (Q08881 whole entry): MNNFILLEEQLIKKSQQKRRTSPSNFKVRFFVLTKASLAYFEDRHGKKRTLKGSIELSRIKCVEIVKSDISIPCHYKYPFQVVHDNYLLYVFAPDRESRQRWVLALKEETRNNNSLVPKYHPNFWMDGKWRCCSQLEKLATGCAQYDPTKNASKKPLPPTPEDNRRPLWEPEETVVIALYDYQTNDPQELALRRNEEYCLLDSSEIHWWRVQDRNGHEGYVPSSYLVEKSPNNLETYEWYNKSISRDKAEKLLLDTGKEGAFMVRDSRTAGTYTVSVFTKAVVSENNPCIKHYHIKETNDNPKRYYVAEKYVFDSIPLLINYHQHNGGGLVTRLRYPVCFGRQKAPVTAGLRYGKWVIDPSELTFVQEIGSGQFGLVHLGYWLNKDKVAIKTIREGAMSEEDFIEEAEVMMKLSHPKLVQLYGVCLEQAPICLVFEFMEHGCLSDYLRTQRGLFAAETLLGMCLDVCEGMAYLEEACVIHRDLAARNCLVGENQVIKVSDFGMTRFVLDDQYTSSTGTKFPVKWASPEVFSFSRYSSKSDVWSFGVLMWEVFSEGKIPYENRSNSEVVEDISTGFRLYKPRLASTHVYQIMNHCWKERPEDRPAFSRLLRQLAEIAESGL
Glycogen synthase kinase-3 beta (Homo sapiens), sequence (P49841 whole entry, looked up): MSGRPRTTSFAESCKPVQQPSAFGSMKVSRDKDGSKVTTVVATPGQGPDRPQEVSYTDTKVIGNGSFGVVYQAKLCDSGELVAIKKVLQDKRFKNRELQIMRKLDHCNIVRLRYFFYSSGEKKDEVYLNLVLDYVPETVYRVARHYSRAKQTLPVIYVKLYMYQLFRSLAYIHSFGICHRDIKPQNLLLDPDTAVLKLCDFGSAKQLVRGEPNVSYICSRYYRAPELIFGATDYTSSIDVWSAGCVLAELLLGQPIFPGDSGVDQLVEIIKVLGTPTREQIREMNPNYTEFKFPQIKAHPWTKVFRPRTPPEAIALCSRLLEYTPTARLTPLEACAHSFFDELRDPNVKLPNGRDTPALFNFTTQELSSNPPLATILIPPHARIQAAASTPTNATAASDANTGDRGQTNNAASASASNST
Calcium/calmodulin-dependent protein kinase type II subunit alpha (Homo sapiens), sequence (Q9UQM7 whole entry): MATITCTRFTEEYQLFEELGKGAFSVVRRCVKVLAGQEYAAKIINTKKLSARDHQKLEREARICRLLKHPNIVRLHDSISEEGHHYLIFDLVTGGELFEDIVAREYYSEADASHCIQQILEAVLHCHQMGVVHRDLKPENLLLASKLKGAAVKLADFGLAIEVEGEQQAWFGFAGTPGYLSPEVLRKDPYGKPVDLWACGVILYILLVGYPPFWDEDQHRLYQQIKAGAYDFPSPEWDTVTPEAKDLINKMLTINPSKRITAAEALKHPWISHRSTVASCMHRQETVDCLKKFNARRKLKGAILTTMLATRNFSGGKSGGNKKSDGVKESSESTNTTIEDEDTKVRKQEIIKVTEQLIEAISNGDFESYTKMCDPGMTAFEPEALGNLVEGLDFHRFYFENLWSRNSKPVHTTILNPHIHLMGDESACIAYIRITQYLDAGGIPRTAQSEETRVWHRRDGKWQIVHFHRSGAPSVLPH
Serine/threonine-protein kinase MARK1 (Homo sapiens), sequence (Q9P0L2 whole entry, looked up): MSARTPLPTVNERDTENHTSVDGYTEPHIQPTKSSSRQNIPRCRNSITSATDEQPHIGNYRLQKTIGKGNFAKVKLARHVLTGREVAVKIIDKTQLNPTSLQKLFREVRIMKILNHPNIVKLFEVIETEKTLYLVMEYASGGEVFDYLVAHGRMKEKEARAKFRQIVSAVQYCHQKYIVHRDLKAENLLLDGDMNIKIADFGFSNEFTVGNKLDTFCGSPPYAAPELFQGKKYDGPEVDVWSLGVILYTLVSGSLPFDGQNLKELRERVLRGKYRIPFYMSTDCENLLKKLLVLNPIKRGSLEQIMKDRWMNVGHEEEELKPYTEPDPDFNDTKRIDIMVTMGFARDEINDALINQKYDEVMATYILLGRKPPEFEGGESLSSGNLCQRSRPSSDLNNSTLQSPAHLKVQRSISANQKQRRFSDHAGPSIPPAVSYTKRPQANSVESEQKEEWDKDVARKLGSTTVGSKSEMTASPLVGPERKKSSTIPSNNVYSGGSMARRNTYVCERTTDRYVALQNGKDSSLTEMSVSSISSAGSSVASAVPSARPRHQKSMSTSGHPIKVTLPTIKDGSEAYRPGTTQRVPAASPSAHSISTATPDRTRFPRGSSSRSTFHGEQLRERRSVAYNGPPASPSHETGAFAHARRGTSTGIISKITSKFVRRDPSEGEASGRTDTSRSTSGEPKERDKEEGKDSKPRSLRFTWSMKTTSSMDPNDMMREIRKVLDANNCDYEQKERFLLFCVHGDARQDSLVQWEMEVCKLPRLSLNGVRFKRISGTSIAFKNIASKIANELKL
Mitogen-activated protein kinase 3 (Homo sapiens), sequence (P27361 whole entry): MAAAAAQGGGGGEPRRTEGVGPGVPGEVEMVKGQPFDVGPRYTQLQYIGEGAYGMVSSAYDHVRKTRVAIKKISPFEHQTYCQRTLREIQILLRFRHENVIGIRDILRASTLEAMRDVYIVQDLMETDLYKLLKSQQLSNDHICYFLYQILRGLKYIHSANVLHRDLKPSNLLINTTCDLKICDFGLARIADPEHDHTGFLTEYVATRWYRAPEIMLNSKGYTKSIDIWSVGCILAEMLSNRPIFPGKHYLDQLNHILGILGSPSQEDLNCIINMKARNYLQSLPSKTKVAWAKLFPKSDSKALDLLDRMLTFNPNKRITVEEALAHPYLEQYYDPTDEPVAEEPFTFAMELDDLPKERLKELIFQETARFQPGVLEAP
Mitogen-activated protein kinase 14 (Homo sapiens), sequence (Q16539 whole entry): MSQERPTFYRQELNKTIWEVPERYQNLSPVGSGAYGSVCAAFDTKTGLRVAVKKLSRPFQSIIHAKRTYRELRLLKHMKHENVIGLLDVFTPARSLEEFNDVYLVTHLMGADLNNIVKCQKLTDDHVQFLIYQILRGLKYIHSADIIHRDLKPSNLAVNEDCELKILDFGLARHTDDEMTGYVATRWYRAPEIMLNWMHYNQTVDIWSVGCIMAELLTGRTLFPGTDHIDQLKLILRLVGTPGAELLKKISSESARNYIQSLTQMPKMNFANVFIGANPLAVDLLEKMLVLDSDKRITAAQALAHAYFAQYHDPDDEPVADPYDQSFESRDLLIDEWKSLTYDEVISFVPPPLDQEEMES
Phosphatidylinositol 4-kinase beta (Homo sapiens), sequence (Q9UBF8 2-816 limits assumed): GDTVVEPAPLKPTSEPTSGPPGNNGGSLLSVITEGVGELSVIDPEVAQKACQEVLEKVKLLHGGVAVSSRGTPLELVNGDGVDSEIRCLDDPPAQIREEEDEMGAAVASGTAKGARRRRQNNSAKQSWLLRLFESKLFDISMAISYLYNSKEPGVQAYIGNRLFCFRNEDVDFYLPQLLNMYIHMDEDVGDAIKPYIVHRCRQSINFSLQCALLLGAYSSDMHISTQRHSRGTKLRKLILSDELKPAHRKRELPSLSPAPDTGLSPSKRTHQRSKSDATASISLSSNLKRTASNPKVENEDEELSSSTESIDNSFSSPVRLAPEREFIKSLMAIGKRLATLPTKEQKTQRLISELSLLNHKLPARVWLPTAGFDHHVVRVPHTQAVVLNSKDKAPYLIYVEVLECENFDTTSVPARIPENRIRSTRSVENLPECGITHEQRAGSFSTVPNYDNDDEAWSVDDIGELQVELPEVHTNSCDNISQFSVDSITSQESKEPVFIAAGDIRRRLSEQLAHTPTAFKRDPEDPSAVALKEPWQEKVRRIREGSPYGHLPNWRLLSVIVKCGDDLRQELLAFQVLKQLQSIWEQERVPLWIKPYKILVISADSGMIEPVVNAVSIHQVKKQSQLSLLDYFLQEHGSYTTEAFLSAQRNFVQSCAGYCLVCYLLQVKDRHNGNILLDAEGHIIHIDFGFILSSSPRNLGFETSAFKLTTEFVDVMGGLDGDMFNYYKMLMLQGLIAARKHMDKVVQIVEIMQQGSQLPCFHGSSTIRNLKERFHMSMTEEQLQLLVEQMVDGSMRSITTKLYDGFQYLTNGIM
Cyclin-dependent kinase 5/CDK5 activator 1 (Homo sapiens), sequence (Q00535 whole entry): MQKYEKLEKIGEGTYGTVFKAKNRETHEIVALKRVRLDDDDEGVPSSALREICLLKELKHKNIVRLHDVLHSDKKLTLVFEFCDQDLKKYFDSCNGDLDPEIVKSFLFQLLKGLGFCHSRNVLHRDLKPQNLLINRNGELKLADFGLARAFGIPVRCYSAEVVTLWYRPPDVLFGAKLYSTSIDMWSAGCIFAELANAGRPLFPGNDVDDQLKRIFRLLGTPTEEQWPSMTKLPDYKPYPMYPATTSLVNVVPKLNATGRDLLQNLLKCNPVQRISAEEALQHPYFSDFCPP
Cyclin-dependent kinase 5/CDK5 activator 1 (Homo sapiens), sequence (Q15078 99-307 partner limits assumed): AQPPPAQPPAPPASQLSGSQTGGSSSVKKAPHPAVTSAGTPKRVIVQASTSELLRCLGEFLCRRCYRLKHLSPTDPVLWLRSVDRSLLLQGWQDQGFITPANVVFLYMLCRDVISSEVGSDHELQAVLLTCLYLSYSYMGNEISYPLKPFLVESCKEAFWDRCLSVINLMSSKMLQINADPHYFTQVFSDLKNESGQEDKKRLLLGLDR

O=C(CNC(=O)c1cccn(Cc2ccc(F)c(F)c2)c1=O)Nc1ccc2c(c1)/C(=C/c1cnc[nH]1)C(=O)N2
IC50 [1]: 3.36 nM
Activity (GSC [2]): Dose-dependent effect
inhibition [3]: -3%
inhibition [4]: 17%
inhibition [5]: 4%
inhibition [6]: 4%
inhibition [7]: 0%
inhibition [8]: -3%
inhibition [9]: 24%
inhibition [10]: 14%
Activity [11]: 16.15%
Activity (U-87 MG [12]): 17.3%
inhibition [13]: 10%
inhibition [14]: 2%
inhibition [15]: 87%
IC50 [16]: 450 nM
inhibition (U-87MG ATCC): Dose-dependent effect
inhibition [17]: 2%
inhibition [18]: 3%
inhibition [19]: 38%
Activity (U-87 MG [20]): 5.65%
inhibition [21]: -3%
inhibition [22]: 17%
inhibition [23]: 3%
inhibition [24]: 3%
inhibition [25]: 7%
inhibition [26]: 7%
Activity (GSC [27]): Active
Imax [28]: 41%
